The text below walks through data of patent publication US20230312587A1, “PTERIDINONE COMPOUNDS AND USES THEREOF” (Vertex Pharmaceutical Incorporated, priority 2018, published 2023).

Where two headings read alike, the source gives them in different places.

The IC50 is the concentration that inhibits the measured activity by half. In general, EC50 refers to the midpoint of the concentration-response curve.

One assay concerns the target Plk1 (Homo sapiens (Human), UniProt P53350). Kind of assay: PLK1 inhibition assay (radioactive-phosphate incorporation). Type of assay: biochemical. The note with it: Ki(app), read-out: PLK1 - 33P.ENZ - CB 10 Ki. How it is done:
Compounds were screened for their ability to inhibit Plk1 using a radioactive-phosphate incorporation assay. Assays were carried out in a mixture of 25 mM HEPES (pH 7.5), 10 mM MgCl2, 25 mM NaCl, and 2 mM DTT. Final substrate concentrations were 20 μM [γ-33P]ATP (35mCi 33P ATP/mmol ATP, Perkin Elmer/Sigma Chemicals) and 9 uM Sam68 protein. Assays were carried out at room temperature in the presence of 15 nM Plk1. An assay stock buffer solution was prepared containing all of the reagents listed above, with the exception of ATP and the test compound of interest. 0.75 μL of DMSO stock containing serial dilutions of the test compound (typically starting from a final concentration of 10 μM with 2-fold serial dilutions—final DMSO concentration 1.5%) was placed in a 384 well plate followed by addition of 25 μL [γ-33P]ATP (final concentration 20 μM). The reaction was initiated by addition of 25 μL of the assay stock buffer solution.
The reaction was stopped after 45 minutes by the addition of 25 μL 30% trichloroacetic acid (TCA) containing 10 mM cold ATP. The entire quenched reaction was transferred to a 384-well glass fiber filter plate (Millipore, Cat no. MZFBNOW50). The plate was washed with 3×5% TCA. After drying, 40 μL of Ultima Gold liquid scintillation cocktail (Perkin Elmer) was added to the well prior to scintillation counting in a PerkinElmer TopCount.
After removing mean background values for all of the data points, Ki(app) data were calculated from non-linear regression analysis of the initial rate data using the Prism software package (GraphPad Prism, GraphPad Software, San Diego California, USA).

Assay [1] deals with β-catenin-TCF-mediated reporter transcription activity in Colo 205 cells. Put plainly: Colo 205 reporter assay (TCF/LEF luciferase). Type of assay: cell-based. The note with it: Colo 205 TCF/LEF luciferase reporter, five hours after addition of compound, read-out: TCF reporter Colo205 IC50. Put shortly: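 Luciferase signal from a TCF/LEF-driven reporter, stably integrated in Colo 205 colon cancer cells, was measured 5 h after compound addition.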

Another assay has as its system Colo-205 cells. Put plainly: Calcium flux assay (FLIPR Calcium 5). It is filed as cell-based. The settings on record: FLIPR Calcium 5, measured over 36 minutes. The protocol: Compounds described herein induced ER stress by causing intracellular calcium flux. Calcium flux was measured in Colo-205 cells using the FLTPR® Calcium 5 Assay Kit according to manufacter's protocol (Molecular Devices, Cat. #R8186) on a FLIPR3 system (Molecular Devices). Calcium flux is measured over 36 minutes. The Colo-205 calcium flux assay data are summarized in Table 47: A<0.6 μM; 0.6 μM≤B<2.0 μM; 2.0 μM≤C<10.0 μM; D≥10.0 μM.
Background: A change in cytosolic calcium serves as a functional read-out for many receptors and channels.

For assay [2], the target named is HEK293 membranes over-expressing WFS-1 (Homo sapiens (Human), UniProt O76024). Kind of assay: Radioligand displacement assay (tritiated Compound 136 probe). Type of assay: binding. The settings on record: displacement of tritiated Compound 136. How it is done:
Cell pellets were re-suspended in 15 times packed cellular volume in 4° C. hypotonic lysis buffer (10 mM HEPES, pH 7.5 containing 1×Protease inhibitor, 0.5 mM EDTA and 2 mM DTT). Re-suspended cells were homogenized with 6-8 strokes in a dounce homogenizer kept on ice. Lysates were centrifuged at 500×G for 15 minutes at 4° C. without brake to decelerate rotor. Following centrifugation, remove the supernatant to a fresh tube and place on ice (Supernatant 1). Repeat the above steps on the lysed cell pellet using 0.5 the original volume of hypotonic lysis buffer and remove the 500× G supernatant (Supernatant 2) and combine with Supernatant 1. Transfer the combined supernatants to a 45-Ti ultracentrifuge tube and centrifuge at 100,000× G for 30 minutes. Following ultracentrifugation, carefully remove the supernatant and discard. Resuspend the 100,000× G pellet in cold resuspension buffer (10 mM HEPES, pH 7.5, 300 mM NaCl containing 1× Protease inhibitor, 1× EDTA and 2 mM DTT). Centrifuge sample at 500× G for 10 minutes with no brake and remove any cloudy, flocculent material. Resuspend pellet in resuspension buffer to approximately 2 mg/mL of protein concentration for use in radioligand binding assay and immunoblotting.
The binding affinities of compounds were determined by measuring the competitive displacement of a tritiated Compound 136 probe from purified HEK293 membranes over-expressing WFS-1. The data for the radioligand displacement assay are summarized in Table 47: A<0.06 μM; 0.06 μM≤B<0.6 μM; 0.6 μM≤C<3.0 μM; D≥3.0 μM.
The probe Kd was determined by titrating tritiated probe under the standard assay conditions plus and minus excess unlabeled probe and fitting the resulting data to a “One site—Total and nonspecific binding” model in Graphpad Prism, version 6.0, San Diego, CA, US. Initially, 0.25 μl of compound dissolved in DMSO at varying concentrations was dispensed to a 384 well plate. Membrane and probe were both prepared at 2× their final concentration in 1× assay buffer as described above. 25 μL of membrane was added to the wells and incubated for 10 minutes. 25 μL of diluted probe was then added to the wells. The assay was incubated for 90 minutes at room temperature. The entire assay volume was then transferred to Millipore GF/B 384-well plates pretreated with 15 μL 0.5% PEI. The filter plates were washed 3× with 75 μL 25 mM TRIS, ph7.5, 0.1% BSA and then dried overnight. Following addition of 45 μL UltimaGold scintillant, the samples were counted in a Perkin Elmer Topcount. The radioactivity remaining is a measure of bound probe. From the bound probe vs concentration of compound titration curve, the IC50 is determined by fitting the data to a standard 3 parameter IC50 model using either Graphpad Prism, version 6.0, San Diego, CA, US, or using GeneData Analyzer, Basel, Switzerland.
On the technique in general: In a radioligand displacement assay an active substance lowers the binding of a labelled ligand.

A further assay deals with HepG2 XBP1(u)-Luc cells. Put plainly: HepG2 XBP1 reporter assay. Type of assay: cell-based. The note with it: 6 h. How it is done: HepG2 hepatoma cells were transduced with a retrovirus encoding the cDNA for unspliced (u) XBP1, which contains a non-processed intron, fused to the cDNA for firefly luciferase. Upon induction of ER stress, the non-processed intron of XBP1(u) is spliced out by active IRE1alpha endonuclease. The resulting spliced (s) XBP1 is now in frame with luciferase which causes the production of active luciferase protein, resulting in bioluminescence
HepG2 XBP1(u)-Luc cells were plated […] Cultured cells with a stably transfected reporter construct were plated at approximately 30,000 cells per well into 96 well multi-well plates for twenty four hours. The testing compounds were then added to the wells in 3-fold serial dilutions using a twenty seven micromolar top concentration. A series of control wells for each cell type received only compound solvent. Six hours after the addition of compound, reporter activity for luciferase was assayed, by addition of the SteadyGlo luminescence reagent (Promega). The reporter luminescence activity was measured using Pherastar plate reader (BMG Labtech). Readings was normalized to DMSO only treated cells, and normalized activities were then used in the IC50 calculations. The HepG2 XBP1 reporter assay data are summarized in Table 47: A<0.6 μM; 0.6 μM≤B<2.0 μM; 2.0 μM≤C<10.0 μM; D≥10.0 μM.
For orientation: A reporter such as luciferase makes a cellular process visible.

Sequence of HEK293 membranes over-expressing WFS-1 (O76024 whole entry): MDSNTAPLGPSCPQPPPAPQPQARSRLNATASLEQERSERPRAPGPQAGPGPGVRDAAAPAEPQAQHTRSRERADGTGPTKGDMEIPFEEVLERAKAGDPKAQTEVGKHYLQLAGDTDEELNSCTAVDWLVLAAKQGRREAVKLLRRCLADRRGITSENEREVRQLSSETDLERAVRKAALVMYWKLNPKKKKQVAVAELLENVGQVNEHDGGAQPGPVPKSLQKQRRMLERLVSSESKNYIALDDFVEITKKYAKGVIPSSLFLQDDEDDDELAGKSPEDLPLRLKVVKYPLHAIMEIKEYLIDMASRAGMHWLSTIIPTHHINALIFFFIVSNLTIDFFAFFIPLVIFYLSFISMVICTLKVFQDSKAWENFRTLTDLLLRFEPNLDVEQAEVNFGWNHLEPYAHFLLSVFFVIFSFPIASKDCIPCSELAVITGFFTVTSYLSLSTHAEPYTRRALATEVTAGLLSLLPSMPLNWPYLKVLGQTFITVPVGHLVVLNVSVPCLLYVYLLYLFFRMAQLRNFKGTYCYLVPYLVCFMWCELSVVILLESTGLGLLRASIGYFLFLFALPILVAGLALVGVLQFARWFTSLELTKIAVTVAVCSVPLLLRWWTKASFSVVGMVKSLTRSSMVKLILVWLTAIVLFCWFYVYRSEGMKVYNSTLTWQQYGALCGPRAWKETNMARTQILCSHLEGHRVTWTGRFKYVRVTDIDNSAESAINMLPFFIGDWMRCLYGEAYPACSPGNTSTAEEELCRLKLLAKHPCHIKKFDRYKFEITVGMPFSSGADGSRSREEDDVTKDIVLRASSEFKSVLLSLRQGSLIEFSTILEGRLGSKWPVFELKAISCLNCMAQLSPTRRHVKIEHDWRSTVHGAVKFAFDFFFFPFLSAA
Sequence of Plk1 (P53350 whole entry, species assumed): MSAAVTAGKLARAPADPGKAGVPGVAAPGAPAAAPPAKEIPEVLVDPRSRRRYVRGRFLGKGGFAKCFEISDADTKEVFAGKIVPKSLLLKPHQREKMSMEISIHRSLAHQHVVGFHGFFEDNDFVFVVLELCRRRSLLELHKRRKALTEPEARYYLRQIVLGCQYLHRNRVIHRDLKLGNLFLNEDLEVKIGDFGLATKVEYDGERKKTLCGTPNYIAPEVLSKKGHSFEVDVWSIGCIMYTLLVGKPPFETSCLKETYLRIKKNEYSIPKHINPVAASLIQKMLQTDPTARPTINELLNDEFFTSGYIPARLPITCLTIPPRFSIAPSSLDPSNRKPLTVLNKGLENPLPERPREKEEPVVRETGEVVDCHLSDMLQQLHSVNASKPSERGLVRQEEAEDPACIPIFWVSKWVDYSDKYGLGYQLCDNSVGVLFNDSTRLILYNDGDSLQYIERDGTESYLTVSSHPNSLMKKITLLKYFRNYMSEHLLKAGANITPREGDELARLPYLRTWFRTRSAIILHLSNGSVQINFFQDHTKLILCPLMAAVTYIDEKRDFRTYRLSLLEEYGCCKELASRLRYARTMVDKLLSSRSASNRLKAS

Regarding `CC[C@@]1(C)C(=O)N(C)c2cnc(NCc3cnn(Cc4ccc(F)cc4)c3)nc2N1C` [Compound 2, (7S)-7-ethyl-2-(((1-(4-fluorobenzyl)-1H-pyrazol-4-yl)methyl)amino)-5,7,8-trimethyl-7,8-dihydropteridin-6(5H)-one], the Ki on Plk1 is above 4000 nM.

Take `CC[C@]1(C)C(=O)N(C)c2cnc(NCc3cnn(Cc4ccc(F)cc4)c3)nc2N1C` [Compound 3, (7R)-7-ethyl-2-(((1-(4-fluorobenzyl)-1H-pyrazol-4-yl)methyl)amino)-5,7,8-trimethyl-7,8-dihydropteridin-6(5H)-one]: in assay [1] (Homo sapiens, COLO 205, 5 h), the half-inhibitory concentration (IC50) was below 300 nM. Further, the Ki on Plk1 is above 4000 nM.

Consider `Cc1nc(NCc2cnn(CC3CCC3)c2)nc2c1NC(=O)[C@H](C)N2C` [Compound 5, (7S)-2-(((1-(cyclobutylmethyl)-1H-pyrazol-4-yl)methyl)amino)-4,7,8-trimethyl-7,8-dihydropteridin-6(5H)-one], for which, in assay [1] (Homo sapiens, COLO 205, 5 h), the IC50 fell in the range of 300 to 1000 nM. Also, on Plk1, the Ki was above 4000 nM.

For `CC[C@H]1C(=O)N(C)c2cnc(NCc3cnn(Cc4cc(F)c(F)c(F)c4)c3)nc2N1C` [Compound 15, (7S)-7-Ethyl-5,8-dimethyl-2-(((1-(3,4,5-trifluorobenzyl)-1H-pyrazol-4-yl)methyl)amino)-7,8-dihydropteridin-6(5H)-one], the concentration for half-maximal inhibition (IC50) in assay [1] (Homo sapiens, COLO 205, 5 h) was below 300 nM. Moreover, at Plk1, the Ki is above 4000 nM.

For `CC[C@H]1C(=O)N(CC)c2cnc(NCc3cnn(Cc4ccc(F)cc4)c3)nc2N1C` [Compound 19, (7S)-5,7-Diethyl-2-(((1-(4-fluorobenzyl)-1H-pyrazol-4-yl)methyl)amino)-8-methyl-7,8-dihydropteridin-6(5H)-one], the IC50 in assay [1] (Homo sapiens, COLO 205, 5 h) fell in the range of 300 to 1000 nM. In addition, the Ki at Plk1 was above 4000 nM.

`CCN1c2nc(NCc3cnn(Cc4ccc(F)cc4)c3)ncc2N(C)C(=O)[C@@H]1C` [Compound 22, (7S)-8-ethyl-2-(((1-(4-fluorobenzyl)-1H-pyrazol-4-yl)methyl)amino)-5,7-dimethyl-7,8-dihydropteridin-6(5H)-one]: the half-maximal inhibitory concentration (IC50) in assay [1] (Homo sapiens, COLO 205, 5 h) was below 300 nM. For the same molecule, at Plk1, the Ki was above 4000 nM.

As to `CCC[C@H]1C(=O)N(C)c2cnc(NCc3cnn(Cc4cc(F)c(F)c(F)c4)c3)nc2N1C` [Compound 23, (7S)-5,8-dimethyl-7-propyl-2-(((1-(3,4,5-trifluorobenzyl)-1H-pyrazol-4-yl)methyl)amino)-7,8-dihydropteridin-6(5H)-one], the IC50 in assay [1] (Homo sapiens, COLO 205, 5 h) is below 300 nM. Moreover, on Plk1, the Ki is above 4000 nM.

Turning to `CCC[C@H]1C(=O)N(C)c2cnc(NCc3cnn(Cc4ccc(F)cc4)c3)nc2N1C` [Compound 24, (7S)-2-(((1-(4-fluorobenzyl)-1H-pyrazol-4-yl)methyl)amino)-5,8-dimethyl-7-propyl-7,8-dihydropteridin-6(5H)-one], in assay [1] (Homo sapiens, COLO 205, 5 h), the concentration for half-maximal inhibition (IC50) fell in the range of 300 to 1000 nM. Also, at Plk1, the Ki was above 4000 nM.

Consider `CCN1C(=O)[C@H](C)N(CC)c2nc(NCc3cnn(Cc4ccc(F)cc4)c3)ncc21` [Compound 30, (7S)-5,8-diethyl-2-(((1-(4-fluorobenzyl)-1H-pyrazol-4-yl)methyl)amino)-7-methyl-7,8-dihydropteridin-6(5H)-one], for which the 50% inhibitory concentration (IC50) in assay [1] (Homo sapiens, COLO 205, 5 h) was below 300 nM. In addition, the Ki at Plk1 is above 4000 nM.

In the case of `CC[C@H]1C(=O)N(C)c2cnc(NCc3cnn(Cc4ccc(F)cc4)c3)nc2N1C(C)C` [Compound 32, (7S)-7-ethyl-2-(((1-(4-fluorobenzyl)-1H-pyrazol-4-yl)methyl)amino)-8-isopropyl-5-methyl-7,8-dihydropteridin-6(5H)-one], the IC50 in assay [1] (Homo sapiens, COLO 205, 5 h) was 300 to 1000 nM. The Ki at Plk1 was above 4000 nM.

For `CCN1C(=O)[C@](C)(CC)N(CC)c2nc(NCc3cnn(Cc4ccc(F)cc4)c3)ncc21` [Compound 34, (7S)-5,7,8-triethyl-2-(((1-(4-fluorobenzyl)-1H-pyrazol-4-yl)methyl)amino)-7-methyl-7,8-dihydropteridin-6(5H)-one], the 50% inhibitory concentration (IC50) in assay [1] (Homo sapiens, COLO 205, 5 h) is 300 to 1000 nM. Besides, the Ki on Plk1 is above 4000 nM.

On to `Cc1nc(N[C@H]2C[C@H](Oc3cc(F)c(F)cc3F)C2)nc2c1NC(=O)[C@H](C)N2C` [Compound 292, (7S)-4,7,8-trimethyl-2-((trans 3-(2,4,5-trifluorophenoxy)cyclobutyl)amino)-7,8-dihydropteridin-6(5H)-one], for which the concentration giving a half-maximal response (EC50) with Colo-205 cells (Homo sapiens, COLO 205, 0.6 h) was below 600 nM. The IC50 was below 300 nM in assay [1] (Homo sapiens, COLO 205, 5 h); below 60 nM in assay [2]; below 600 nM in the assay with HepG2 XBP1(u)-Luc cells (Homo sapiens).

For the molecule `CC[C@H]1C(=O)Nc2c(C)nc(NCc3cnn(C4CC(F)(F)C4)c3)nc2N1C` [Compound 795, (S)-2-(((1-(3,3-difluorocyclobutyl)-1H-pyrazol-4-yl)methyl)amino)-7-ethyl-4,8-dimethyl-7,8-dihydropteridin-6(5H)-one], the 50% effective concentration (EC50) in the assay with Colo-205 cells (Homo sapiens, COLO 205, 0.6 h) is below 600 nM. In addition, the half-inhibitory concentration (IC50) in assay [1] (Homo sapiens, COLO 205, 5 h) is below 300 nM; in assay [2], 60 to 600 nM; in the assay with HepG2 XBP1(u)-Luc cells (Homo sapiens), below 600 nM.

For the molecule `Cc1nc(N[C@H]2C[C@@H](COc3cnc(C(F)(F)F)nc3)C2)nc2c1NC(=O)[C@H](C(C)C)N2C` [Compound 1417, (S)-7-isopropyl-4,8-dimethyl-2-(((1s,3R)-3-(((2-(trifluoromethyl)pyrimidin-5-yl)oxy)methyl)cyclobutyl)amino)-7,8-dihydropteridin-6(5H)-one], the half-maximal effective concentration (EC50) in the assay on Colo-205 cells is below 600 nM. Also, the IC50 in assay [1] was below 300 nM; in assay [2], 60 to 600 nM; in the assay on HepG2 XBP1(u)-Luc cells, below 600 nM.
